From article PMC4121618 (Molecular Pain, 2014)
Read-outs that look alike come from different tables or passages of the source.

How the values were obtained:
[1] = target: T1, human MOP receptors (Homo sapiens, UniProt P35372); test: [35S]GTPγS functional assay in CHOhMOP cell membranes; format: biochemical; parameters: expressed in transfected cells; host or cells: CHO cells; details: for Emax: read-out: [35S]GTPγS functional assay Emax
[2] = target: T1, human MOP receptors; test: Calcium mobilization assay in CHOhMOP cells expressing Gαqi5; format: cell-based; parameters: expressed in transfected cells; host or cells: CHO cells stably co-expressing Gαqi5; details: for Emax: read-out: Calcium mobilization assay Emax
[3] = tested on: mice; parameters: method as in PMID 16033285; details: s.c., hot-plate test, ref [30]; cited from earlier work
[4] = tested on: mice; parameters: method as in PMID 16033285; details: s.c., tail-flick test, ref [30]; cited from earlier work
[5] = target: T2, DOP receptor (Rattus norvegicus, UniProt P33533); details: cited from earlier work; for Ki: read-out: Ki DOP
T2 construct: from tissue; host or cells: Sprague-Dawley rat brain membranes
T2 sequence (P33533 whole entry): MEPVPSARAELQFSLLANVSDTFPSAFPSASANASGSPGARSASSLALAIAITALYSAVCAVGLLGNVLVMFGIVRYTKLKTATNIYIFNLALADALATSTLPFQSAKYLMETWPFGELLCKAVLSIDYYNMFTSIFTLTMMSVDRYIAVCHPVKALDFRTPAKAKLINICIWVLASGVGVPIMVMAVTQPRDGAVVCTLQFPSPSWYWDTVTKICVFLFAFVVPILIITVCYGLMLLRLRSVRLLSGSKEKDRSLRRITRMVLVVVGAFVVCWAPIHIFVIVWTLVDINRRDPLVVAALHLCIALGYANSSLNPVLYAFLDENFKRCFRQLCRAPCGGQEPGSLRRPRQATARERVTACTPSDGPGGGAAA

[6] = tested on: mice; parameters: method as in PMID 16033285; details: s.c., PPQ abdominal stretching test, ref [30]; cited from earlier work
[7] = target: T3, KOP receptor (Rattus norvegicus, UniProt P34975); details: cited from earlier work; for Ki: read-out: Ki KOP
T3 construct: from tissue; host or cells: Sprague-Dawley rat brain membranes
T3 sequence (P34975 whole entry): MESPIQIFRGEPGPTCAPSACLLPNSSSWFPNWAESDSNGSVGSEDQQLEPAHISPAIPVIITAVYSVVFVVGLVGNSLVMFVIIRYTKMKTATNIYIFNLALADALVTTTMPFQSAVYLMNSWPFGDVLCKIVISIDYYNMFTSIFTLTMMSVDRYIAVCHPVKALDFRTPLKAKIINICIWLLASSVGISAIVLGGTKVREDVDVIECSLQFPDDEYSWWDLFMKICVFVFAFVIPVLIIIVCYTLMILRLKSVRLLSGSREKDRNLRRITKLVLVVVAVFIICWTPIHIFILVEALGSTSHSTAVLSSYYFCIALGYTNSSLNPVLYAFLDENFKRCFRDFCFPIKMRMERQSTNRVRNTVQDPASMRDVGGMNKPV

[8] = tested on: MOP receptor; parameters: method as in PMID 15857143; details: ref [13]; cited from earlier work
[9] = tested on: animals; details: ref [14]; cited from earlier work
[10] = target: T4, MOP receptor (Rattus norvegicus, UniProt P33535); details: read-out: Ki MOP; cited from earlier work
T4 construct: from tissue; host or cells: Sprague-Dawley rat brain membranes
T4 sequence (P33535 whole entry): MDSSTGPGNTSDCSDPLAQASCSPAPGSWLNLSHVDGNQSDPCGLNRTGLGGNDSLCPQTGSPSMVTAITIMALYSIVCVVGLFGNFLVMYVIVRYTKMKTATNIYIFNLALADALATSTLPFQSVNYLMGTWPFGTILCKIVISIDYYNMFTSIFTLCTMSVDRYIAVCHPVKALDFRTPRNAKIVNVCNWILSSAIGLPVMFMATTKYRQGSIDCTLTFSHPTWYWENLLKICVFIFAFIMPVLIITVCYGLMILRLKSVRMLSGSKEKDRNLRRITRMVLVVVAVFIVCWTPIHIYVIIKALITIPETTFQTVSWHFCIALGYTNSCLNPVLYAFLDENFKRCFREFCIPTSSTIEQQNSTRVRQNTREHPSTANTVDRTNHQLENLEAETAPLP

[11] = tested on: mice; test: Tail-flick test; format: in vivo; details: s.c.; for ED50: Mus musculus, sc, 20 min, tail-flick test, 20 min after dosing, read-out: ED50 (95% CL) TF
[12] = target: T2, DOP receptor; test: Radioligand binding assay, DOP receptor, rat brain membranes ([3H][Ile5,6]deltorphin II); details: for Selectivity ratio DOP/MOP: Ki ratio, rat brain membranes
[13] = target: T3, KOP receptor; test: Radioligand binding assay, KOP receptor, rat brain membranes ([3H]U69,593); details: for Selectivity ratio KOP/MOP: Ki ratio, rat brain membranes
[14] = tested on: mice; test: Hot-plate test; format: in vivo; details: s.c.; for ED50: Mus musculus, sc, 0.5 h, hot-plate test, 30 min after dosing, read-out: ED50 (95% CL) HP
[15] = tested on: mice; test: PPQ abdominal stretching test; format: in vivo; details: for ED50: Mus musculus, sc, PPQ abdominal stretching test, read-out: ED50 (95% CL) PPQ; for Times more active than oxycodone (antinociceptive potency): maximum over hot-plate, tail-flick and PPQ assays
[16] = target: T4, MOP receptor; test: Radioligand binding assay, MOP receptor, rat brain membranes ([3H]DAMGO)
[17] = target: T5, human KOP receptors (CHOhKOP) (Homo sapiens, UniProt P41145); test: Binding assay in CHOhKOP cell membranes ([3H]diprenorphine)
T5 construct: expressed in transfected cells
T5 sequence (P41145 whole entry): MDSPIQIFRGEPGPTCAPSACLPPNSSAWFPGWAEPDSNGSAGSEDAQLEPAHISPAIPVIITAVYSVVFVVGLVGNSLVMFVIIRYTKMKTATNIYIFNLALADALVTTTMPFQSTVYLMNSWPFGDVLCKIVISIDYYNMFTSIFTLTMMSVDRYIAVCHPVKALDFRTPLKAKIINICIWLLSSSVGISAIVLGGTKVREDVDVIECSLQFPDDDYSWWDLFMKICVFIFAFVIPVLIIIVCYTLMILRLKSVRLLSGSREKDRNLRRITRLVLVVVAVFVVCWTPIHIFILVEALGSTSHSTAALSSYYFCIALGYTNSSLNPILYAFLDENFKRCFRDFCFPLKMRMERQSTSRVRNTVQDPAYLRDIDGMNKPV

[18] = target: T6, rat DOP receptors (C6rDOP) (Rattus norvegicus, UniProt P33533); test: Binding assay in C6rDOP cell membranes ([3H]diprenorphine)
T6 construct: expressed in transfected cells
T6 sequence (P33533 whole entry): as the sequence (P33533 whole entry) above

[19] = target: T7, recombinant rat MOP receptor expressed in C6 glioma cells (Rattus norvegicus, UniProt P33535); test: Binding assay in C6rMOP cell membranes ([3H]diprenorphine)
T7 construct: expressed in transfected cells
T7 sequence (P33535 whole entry): as the sequence (P33535 whole entry) above

[20] = tested on: human MOP receptor; parameters: method as in PMID 22002663; details: HEK293 cells co-expressing human MOP receptor and Gαqi3, ref [37], cited from earlier work
[21] = tested on: C6rMOP cells (rat MOP receptor); parameters: method as in PMID 16291875; details: ref [36], read-out: Potency EC50; cited from earlier work
[22] = tested on: human MOP receptor in CHO cells; parameters: method as in PMID 14600248; details: CHOhMOP, Thompson et al.; ref [35]; read-out: [35S]GTPγS binding EC50; cited from earlier work
[23] = absolute stimulation, set as 100%

T1 sequence (P35372 whole entry): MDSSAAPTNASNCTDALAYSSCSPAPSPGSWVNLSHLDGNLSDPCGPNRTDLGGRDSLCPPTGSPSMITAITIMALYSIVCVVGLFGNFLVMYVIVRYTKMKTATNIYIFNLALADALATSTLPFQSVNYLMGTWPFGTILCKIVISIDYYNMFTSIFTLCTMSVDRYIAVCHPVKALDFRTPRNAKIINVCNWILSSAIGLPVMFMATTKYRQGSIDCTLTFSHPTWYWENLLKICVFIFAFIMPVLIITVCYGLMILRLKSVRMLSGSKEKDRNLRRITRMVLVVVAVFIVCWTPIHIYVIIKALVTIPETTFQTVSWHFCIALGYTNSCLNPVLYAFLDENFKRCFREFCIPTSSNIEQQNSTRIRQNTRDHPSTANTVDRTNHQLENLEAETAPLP

Structure (SMILES) | ED50 (95% CL) HP [3] | EC50 [1] [nM] | Emax [1] [%] | ED50 (95% CL) TF [4] | Ki [5] [nM] | EC50 [2] [nM] | Times greater potency than oxycodone and 14-OMC, calcium mobilization ([2]; CHOhMOP Gαqi5 cells) | Emax [2] [%] | ED50 (95% CL) PPQ [6] | Ki [7] [nM] | ED50 [11] [mg/kg] | Ki [12] [nM] | Selectivity ratio DOP/MOP [12] | Ki [13] [nM] | Selectivity ratio KOP/MOP [13] | ED50 [14] [mg/kg] | ED50 [15] [mg/kg] | Ki [16] [nM] | further results
C[C@@H](NC(=O)[C@@H](N)Cc1ccc(O)cc1)C(=O)NCC(=O)N(C)[C@@H](Cc1ccccc1)C(=O)NCCO [DAMGO, [D-Ala^2,Me-Phe^4,Gly-ol^5]enkephalin, reference compound] |  |  |  |  |  |  |  |  |  |  |  |  |  |  |  |  |  |  | Maximal DAMGO stimulation in [35S]GTPγS functional assay [1, 23]: 225 ± 32%; Maximal DAMGO stimulation in calcium mobilization assay [2, 23]: 217 ± 21%
COc1ccc2c(c1O)C13C=C(C#N)CCC1(O)C(C2)N(C)CC3 (stereo not shown) [compound 1] | 0.50 (0.12-2.02) mg/kg, s.c. | 273 ± 24 | 98 ± 4 | 1.88 (1.25-2.83) mg/kg, s.c. | 498 ± 79 | 957 ± 233 | up to 10 times | 57 ± 4 | 0.18 (0.076-0.42) mg/kg, s.c. | 1650 |  |  |  |  |  |  |  |  | 
COC12CCC(=O)C3Oc4c(O)ccc5c4C31CCN(C)C2C5 (stereo not shown) [14-O-methyloxymorphone] |  |  |  |  |  |  |  |  |  |  |  |  |  |  |  |  |  |  | Times increased binding affinity at the MOP receptor vs oxymorphone [8]: 9 times; Times more potent in inducing an antinociceptive effect than oxymorphone [9]: up to 40 times
COc1ccc2c(c1O)C13C=C(C#N)CCC1(OC)C(C2)N(C)CC3 (stereo not shown) [compound 3] | 0.25 (0.11-0.59) mg/kg, s.c. | 26.2 ± 1.7 | 85 ± 3 | 0.21 (0.11-0.40) mg/kg, s.c. | 197 ± 29 | 140 ± 21 | up to 10 times | 61 ± 6 | 0.11 (0.072-0.16) mg/kg, s.c. | 378 ± 155 |  |  |  |  |  |  |  |  | Selectivity ratio DOP/MOP [5]: 37; Selectivity ratio KOP/MOP [7]: 70; Ki [10]: 5.38 ± 0.42 nM
COc1ccc2c(c1OC)C13C=C(C(N)=O)CCC1(OC)C(C2)N(C)CC3 (stereo not shown) [compound 4] |  | 25.6 ± 9.5 | 107 ± 26 |  |  | 56.1 ± 11.3 |  | 59 ± 8 |  |  | 1.34 | 28.8 ± 2.3 | 18 | 105 ± 45 | 65 | 1.3 | 0.18 | 1.61 ± 0.05 | Times less active than compound 1, hot-plate [14]: about 3 times
COc1ccc2c(c1OC)C13C=C(C#N)C=CC1(OC)C(C2)N(C)CC3 (stereo not shown) [compound 5] |  | 1.64 ± 0.19 | 133 ± 7 |  |  | 21.7 ± 5.5 |  | 70 ± 8 |  |  | 0.04 | 30.3 ± 2.9 | 56 | 200 ± 40 | 370 | 0.08 | 0.0023 | 0.54 ± 0.04 | Ki [17]: 229 nM; MOP selectivity vs. KOP ([17]; recombinant receptors, CHOhKOP vs C6rMOP): 327 times; Ki [18]: 56 nM; MOP selectivity vs. DOP ([18]; recombinant receptors, C6rDOP vs C6rMOP): 80 times; Times more potent than DAMGO, calcium mobilization ([2]; CHOhMOP Gαqi5 cells): about 2 times; Ki [19]: 0.7 nM; Times more active than oxycodone (antinociceptive potency) ([15]; s.c.): up to 165 times
COc1ccc2c3c1O[C@H]1C(=O)CC[C@@]4(O)[C@@H](C2)N(C)CC[C@]314 [Oxycodone, oxycodone, reference compound] | 1.37 (0.48-3.92) mg/kg, s.c. |  | 92 ± 9 | 0.94 (0.40-2.30) mg/kg, s.c. |  |  |  | 38 ± 3 | 0.38 (0.19-0.75) mg/kg, s.c. |  |  |  |  |  |  |  |  |  | Efficacy, changes in intracellular calcium levels [20]: 100%; EC50 ([20]; read-out: Potency, changes in intracellular calcium levels): 1740 nM; EC50 [21]: 373 nM; EC50 [22]: 1400 nM
COc1ccc2c3c1O[C@H]1C(=O)CC[C@@]4(OC)[C@@H](C2)N(C)CC[C@]314 [14-OMC, 14-O-methyloxycodone, reference compound] |  | 325 ± 94 | 137 ± 55 |  |  | 973 ± 204 |  | 72 ± 7 |  |  | 0.8 | 116 ± 15 | 3 | 454 ± 6 | 13 | 1.02 | 0.22 | 35.3 ± 2.1 | 
COc1ccc2c3c1OC1C(C#N)=CCC4(OC)C(C2)N(C)CCC314 (stereo not shown) [compound 6] |  | 25.1 ± 3.6 | 121 ± 27 |  |  | 173 ± 21 | up to 10 times | 84 ± 10 |  |  | 0.12 | 239 ± 40 | 32 | 194 ± 68 | 26 | 0.089 | 0.003 | 7.39 ± 0.34 | Times less potent than analogue 5, tail-flick [11]: 3 times; Times more potent than 14-OMC, tail-flick [11]: 7 times; Times more potent than analogue 3, tail-flick [11]: ~2 times; Times more potent than 14-OMC, hot-plate [14]: 11 times; Times more potent than analogue 3, hot-plate [14]: ca. 3 times; Times more potent than 14-OMC, PPQ ([15]; s.c.): 72 times; Times more potent than analogue 3, PPQ ([15]; s.c.): ~37 times; Times more active than oxycodone (antinociceptive potency) ([15]; s.c.): up to 165 times; Increase in binding to the MOP receptor vs 6-keto counterpart 14-OMC ([16]; rat brain membranes): about 5 times
COc1ccc2c(c1OC)C13C=C(C#N)CCC1(O)C(C2)N(C)CC3 (stereo not shown) [compound 2] | 0.15 (0.054-0.41) mg/kg, s.c. | 42.5 ± 14.9 | 97 ± 15 | 0.12 (0.061-0.23) mg/kg, s.c. | 107 ± 5 | 116 ± 9 | up to 10 times | 69 ± 7 | 0.026 (0.012-0.055) mg/kg, s.c. | 364 ± 7 |  |  |  |  |  |  |  |  | Selectivity ratio DOP/MOP [5]: 44; Selectivity ratio KOP/MOP [7]: 149; Ki [10]: 2.44 ± 0.13 nM
